Test results: patent US9556201B2, “Bicyclic pyridines and analogs as sirtuin modulators” (GLAXOSMITHKLINE LLC, priority 2009, dated 2017)

Target: T1, SIRT1 (Homo sapiens, UniProt Q96EB6)
T1 sequence (Q96EB6 1-747): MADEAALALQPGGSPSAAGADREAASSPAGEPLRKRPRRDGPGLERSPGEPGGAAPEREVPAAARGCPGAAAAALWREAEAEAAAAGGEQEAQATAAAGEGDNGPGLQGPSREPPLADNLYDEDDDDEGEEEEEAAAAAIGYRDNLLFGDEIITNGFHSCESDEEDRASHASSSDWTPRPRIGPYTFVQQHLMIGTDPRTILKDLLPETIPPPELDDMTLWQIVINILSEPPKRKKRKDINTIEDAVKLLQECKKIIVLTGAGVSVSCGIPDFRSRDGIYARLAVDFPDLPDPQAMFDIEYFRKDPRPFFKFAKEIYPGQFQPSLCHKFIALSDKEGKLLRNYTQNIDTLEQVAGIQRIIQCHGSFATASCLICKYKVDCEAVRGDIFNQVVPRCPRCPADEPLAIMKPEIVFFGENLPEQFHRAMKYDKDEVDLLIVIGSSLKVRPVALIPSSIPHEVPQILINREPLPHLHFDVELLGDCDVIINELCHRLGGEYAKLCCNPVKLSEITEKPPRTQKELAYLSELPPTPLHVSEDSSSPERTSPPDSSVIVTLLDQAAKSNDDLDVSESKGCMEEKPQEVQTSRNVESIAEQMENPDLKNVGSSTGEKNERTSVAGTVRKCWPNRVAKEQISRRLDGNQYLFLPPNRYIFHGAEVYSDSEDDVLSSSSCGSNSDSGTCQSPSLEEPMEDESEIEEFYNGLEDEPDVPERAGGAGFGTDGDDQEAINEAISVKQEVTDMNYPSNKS
Experiment: Mass spectrometry based assay to identify modulators of SIRT1 activity (deacetylation of p53-based acetylated peptide substrate)
Type: biochemical
Details: for Emax: 25 min, read-out: % FOLD ACT. (percent maximum fold activation); for Emax / EC1.5: SIRT1 activation
Excerpt: A mass spectrometry based assay was used to identify modulators of SIRT1 activity. The mass spectrometry based assay utilizes a peptide having 20 amino acid residues as follows: Ac-EE-K(biotin)-GQSTSSHSK(Ac)NleSTEG-K(5TMR)-EE-NH2 (SEQ ID NO: 1) wherein K(Ac) is an acetylated lysine residue and Nle is a norleucine. The peptide is labeled with the fluorophore 5TMR (excitation 540 nm/emission 580 nm) at the C-terminus. The sequence of the peptide substrate is based on p53 with several modifications. In addition, the methionine residue naturally present in the sequence was replaced with the norleucine because the methionine may be susceptible to oxidation during synthesis and purification.
The mass spectrometry assay is conducted as follows: […] peptide substrate and 120 μM βNAD^+ is incubated with 10 nM SIRT1 for 25 minutes at 25° C. in a reaction buffer (50 mM Tris-acetate pH 8, 137 mM NaCl, 2.7 mM KCl, 1 mM MgCl2, 5 mM DTT, 0.05% BSA). Test compounds may be added to the reaction as described above. The SirT1 gene is cloned into a T7-promoter containing vector and transformed into BL21(DE3). After the 25 minute incubation with SIRT1, 10 μL of 10% formic acid is added to stop the reaction. Reactions are sealed and frozen for later mass spec analysis. Determination of the mass of the substrate peptide allows for precise determination of the degree of acetylation (i.e. starting material) as compared to deacetylated peptide (product).
A control for inhibition of sirtuin activity is conducted by adding 1 μL of 500 mM nicotinamide as a negative control at the start of the reaction (e.g., permits determination of maximum sirtuin inhibition). A control for activation of sirtuin activity is conducted using 10 nM of sirtuin protein, with 1 μL of DMSO in place of compound, to determine the amount of deacetylation of the substrate at a given timepoint within the linear range of the assay. This timepoint is the same as that used for test compounds and, within the linear range, the endpoint represents a change in velocity.
For the above assay, SIRT1 protein was expressed and purified as follows. The SirT1 gene was cloned into a T7-promoter containing vector and transformed into BL21(DE3). The protein was expressed by induction with 1 mM IPTG as an N-terminal His-tag fusion protein at 18° C. overnight and harvested at 30,000×g. Cells were lysed with lysozyme in lysis buffer (50 mM Tris-HCl, 2 mM Tris[2-carboxyethyl]phosphine (TCEP), 10 μM ZnCl2, 200 mM NaCl) and further treated with sonication for 10 min for complete lysis. The protein was purified over a Ni-NTA column (Amersham) and fractions containing pure protein were pooled, concentrated and run over a sizing column (Sephadex S200 26/60 global). The peak containing soluble protein was collected and run on an Ion-exchange column (MonoQ). Gradient elution (200 mM-500 mM NaCl) yielded pure protein. This protein was concentrated and dialyzed against dialysis buffer (20 mM Tris-HCl, 2 mM TCEP) overnight. The protein was aliquoted and frozen at −80° C. until further use.

| SMILES | Emax | EC1.5 | EC1.5 (concentration giving 1.5-fold activation) |
| --- | --- | --- | --- |
| Cc1csc(NC(=O)N2CCCOc3ccc(-c4cccc(N5CCCC5)c4)nc32)n1 [Compound 628] | ≤ 200% | B (EC1.5 1-25 μM) | – |
| Cc1cncc(NC(=O)N2CC(C)(C)Oc3ccc(-c4cccc(CN5CCCC5)c4)nc32)c1 [Compound 629, 2,2-dimethyl-N-(5-methylpyridin-3-yl)-6-(3-(pyrrolidin-1-ylmethyl)phenyl)-2H-pyrido[3,2-b][1,4]oxazine-4(3H)-carboxamide] | > 200% | B (EC1.5 1-25 μM) | – |
| CC1(C)CN(C(=O)Nc2cccnc2)c2nc(-c3cccc(CN4CCCC4)c3)ccc2O1 [Compound 630] | > 200% | B (EC1.5 1-25 μM) | – |
| Cc1cc(NC(=O)N2CCOc3ccc(-c4cc(C)nn4C)nc32)cc(C)n1 [Compound 632] | > 200% | B (EC1.5 1-25 μM) | – |
| O=C(NC1(c2ccccn2)CC1)N1CCOc2ccc(-c3cccc(C(F)(F)F)c3)nc21 [Compound 633, N-(1-(pyridin-2-yl)cyclopropyl)-6-(3-(trifluoromethyl)phenyl)-2H-pyrido[3,2-b][1,4]oxazine-4(3H)-carboxamide] | ≤ 200% | C (EC1.5>25 μM) | – |
| CC1(C)CC(NC(=O)N2CCOc3ccc(-c4cccc(C(F)(F)F)c4)nc32)CC(C)(C)N1 [Compound 634] | ≤ 200% | C (EC1.5>25 μM) | – |
| Cc1ccc(-c2ccc3c(n2)N(C(=O)Nc2ccnc(C)c2)CCCO3)cn1 [Compound 635] | ≤ 200% | C (EC1.5>25 μM) | – |
| Cc1cncc(NC(=O)N2CCCOc3ccc(-c4ccc(C)nc4)nc32)c1 [Compound 636] | ≤ 200% | C (EC1.5>25 μM) | – |
| Cc1ccc(-c2ccc3c(n2)N(C(=O)Nc2cc(C)nc(C)c2)CCCO3)cn1 [Compound 637] | > 200% | B (EC1.5 1-25 μM) | – |
| Cc1cc(OCC(O)CO)nc(NC(=O)N2CCCc3ccc(-c4cccc(C(F)(F)F)c4)nc32)n1 (stereo not shown) [Compound 640] | > 200% | B (EC1.5 1-25 μM) | – |
| O=C(Oc1cccc(OCC(O)CO)c1)N1CCCc2ccc(-c3cccc(C(F)(F)F)c3)nc21 (stereo not shown) [Compound 641, 3-(2,3-dihydroxypropoxy)phenyl 7-(3-(trifluoromethyl)phenyl)-3,4-dihydro-1,8-naphthyridine-1(2H)-carboxylate] | ≤ 200% | B (EC1.5 1-25 μM) | – |
| O=C(c1cccc(OCC(O)CO)c1)N1CCCc2ccc(-c3cccc(C(F)(F)F)c3)nc21 (stereo not shown) [Compound 642, (3-(2,3-dihydroxypropoxy)phenyl)(7-(3-(trifluoromethyl)phenyl)-3,4-dihydro-1,8-naphthyridin-1(2H)-yl)methanone] | ≤ 200% | C (EC1.5>25 μM) | – |
| O=C(Nc1ncccn1)N1CCCOc2ccc(-c3cccc(C(F)(F)F)c3)nc21 [Compound 643] | > 200% | B (EC1.5 1-25 μM) | – |
| O=C(Nc1ccncc1)N1CCCc2ccc(-c3cccc(F)c3)nc21 [Compound 648] | > 200% | A (EC1.5<1.0 μM) | – |
| O=C(Nc1ccccn1)N1CCCc2ccc(-c3cccc(F)c3)nc21 [Compound 649] | > 200% | A (EC1.5<1.0 μM) | – |
| O=C(Nc1cccnc1)N1CCCc2ccc(-c3cccc(F)c3)nc21 [Compound 650] | > 200% | B (EC1.5 1-25 μM) | – |
| O=C(Nc1ccncc1)N1CCCc2ccc(-c3cccc(Cl)c3)nc21 [Compound 651] | > 200% | A (EC1.5<1.0 μM) | – |
| O=C(Nc1ccccn1)N1CCCc2ccc(-c3cccc(Cl)c3)nc21 [Compound 652] | > 200% | A (EC1.5<1.0 μM) | – |
| Cc1cncc(NC(=O)N2CCCOc3ccc(-c4ccnc(C)c4)nc32)c1 [Compound 655] | ≤ 200% | B (EC1.5 1-25 μM) | – |

| SMILES | Emax | EC1.5 | EC1.5 (concentration giving 1.5-fold activation) |
| --- | --- | --- | --- |
| Cc1cc(NC(=O)N2CCCOc3ccc(-c4ccnc(C)c4)nc32)ccn1 [Compound 656] | > 200% | B (EC1.5 1-25 μM) | – |
| Cc1cc(-c2ccc3c(n2)N(C(=O)Nc2cc(C)nc(C)c2)CCCO3)ccn1 [Compound 657] | > 200% | B (EC1.5 1-25 μM) | – |
| O=C(Nc1ncccn1)N1CCCc2ccc(-c3cccc(F)c3)nc21 [Compound 665] | > 200% | B (EC1.5 1-25 μM) | – |
| O=C(Nc1ncccn1)N1CCCc2ccc(-c3cccc(C(F)(F)F)c3)nc21 [Compound 666] | > 200% | A (EC1.5<1.0 μM) | – |
| O=C(Nc1ncccn1)N1CCCc2ccc(-c3cccc(Cl)c3)nc21 [Compound 667] | > 200% | B (EC1.5 1-25 μM) | – |
| O=C(Nc1ccncc1)N1CCOc2ccc(-c3ccccc3)nc21 [Compound 673] | > 200% | A (EC1.5<1.0 μM) | – |
| Cc1cc(-c2ccc3c(n2)N(C(=O)Nc2ccncn2)CCCO3)ccn1 [Compound 674] | > 200% | B (EC1.5 1-25 μM) | – |
| Cc1cc(-c2ccc3c(n2)N(C(=O)Nc2nc(C)cs2)CCCO3)ccn1 [Compound 676] | > 200% | B (EC1.5 1-25 μM) | – |
| CN(C)Cc1cccc(-c2ccc3c(n2)N(C(=O)Nc2cccnc2)CC(C)(C)O3)c1 [Compound 677, 6-(3-((dimethylamino)methyl)phenyl)-2,2-dimethyl-N-(pyridin-3-yl)-2H-pyrido[3,2-b][1,4]oxazine-4(3H)-carboxamide] | > 200% | B (EC1.5 1-25 μM) | – |
| O=C(Nc1cccc(OC[C@H](O)CO)n1)N1CCCc2ccc(-c3cccc(F)c3)nc21 [Compound 679] | > 200% | A (EC1.5<1.0 μM) | – |
| Cc1ccc(-c2ccc3c(n2)N(C(=O)Nc2nc(C)cs2)CCCO3)cn1 [Compound 680] | > 200% | B (EC1.5 1-25 μM) | – |
| Cc1ccc(-c2ccc3c(n2)N(C(=O)Nc2ccncn2)CCCO3)cn1 [Compound 681] | ≤ 200% | C (EC1.5>25 μM) | – |
| Cc1cc(-c2cccc(Cl)c2)nc2c1OCCN2C(=O)Nc1ccncn1 [Compound 685] | > 200% | A (EC1.5<1.0 μM) | – |
| Cc1cc(-c2cccc(Cl)c2)nc2c1OCCN2C(=O)Nc1ccncc1 [Compound 686] | > 200% | A (EC1.5<1.0 μM) | – |
| Cc1cc(-c2cccc(Cl)c2)nc2c1OCCN2C(=O)Nc1ccncc1F [Compound 687] | > 200% | A (EC1.5<1.0 μM) | – |
| O=C(Nc1c(F)c(F)c(F)c(F)c1F)N1CCCOc2ccc(-c3cccc(C(F)(F)F)c3)nc21 [Compound 693] | ≤ 200% | C (EC1.5>25 μM) | – |
| Cc1ccc(-c2ccc3c(n2)N(C(=O)Nc2cccc(OC[C@H](O)CO)n2)CCO3)cn1 [Compound 694] | > 200% | B (EC1.5 1-25 μM) | – |
| Cc1cc(OCC(O)CO)nc(NC(=O)N2CCOc3ccc(-c4cccc(C(F)(F)F)c4)nc32)n1 (stereo not shown) [Compound 698] | ≤ 200% | – | 1000 to 25000 nM |
| O=C(Nc1cccc(OC[C@H](O)CO)n1)N1CCCc2ccc(-c3ccc4c(c3)CCO4)nc21 [Compound 702] | > 200% | – | < 1000 nM |
